Laboratory results taken from PubChem BioAssay (NCI).
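The compound was tested at five concentrations on cells cultured in 96-well plates, with a 48-hour exposure period. Definition used: TGI = concentration required for complete inhibition of growth.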 Where a SMILES comes first, the peptide text is derived from it. The star is where a group is joined. Boc = CC(C)(C)OC(=O)*

Experiments:
Assay in all cases: DTP human tumour cell line panel, 48 h
[1] = system: LOX IMVI melanoma
[2] = system: SNB-19 CNS
[3] = system: HL-60(TB) leukemia
[4] = system: MALME-3M melanoma
[5] = system: A498 renal
[6] = system: EKVX NSCLC
[7] = system: HCT-15 colon
[8] = system: NCI-H460 lung
[9] = system: NCI-H522 lung
[10] = system: MCF7 breast
[11] = system: T-47D breast
[12] = system: OVCAR-4 ovarian
[13] = system: SK-MEL-28 melanoma

SMILES | TGI [1] | TGI [2] | TGI [3] | TGI [4] | TGI [5] | TGI [6] | TGI [7] | TGI [8] | TGI [9] | TGI [10] | TGI [11] | TGI [12] | TGI [13]
CC(C)(C)C1=C(Br)C(Br)(C(C)(C)C)OP1(=O)c1ccccc1 (stereo not given) | > 100 µM | > 100 µM | > 100 µM | > 100 µM | > 100 µM | > 100 µM | > 100 µM | > 100 µM | > 100 µM | > 100 µM | > 100 µM | > 100 µM | > 100 µM
C=C(C)C12CC(COC(=O)c3ccccc3)C34OC5(OC1C3C1OC1(CO)C(O)C1(O)C(OC(=O)c3ccccc3)C(C)C(C(C)CCCCCCC5O)C14)O2 (stereo not given) | > 100 µM | > 100 µM |  | > 100 µM | > 100 µM | > 100 µM | > 100 µM | > 100 µM | > 100 µM | > 100 µM | > 100 µM | > 100 µM | > 100 µM
O=C(O)c1c2c(cc3c1CC1(Cc4ccccc4C1)C3)CCC2 | 74.4 µM |  | > 100 µM | > 100 µM | > 100 µM | > 100 µM | > 100 µM | > 100 µM | > 100 µM | > 100 µM | > 100 µM | > 100 µM | > 100 µM
Cc1cc(N(CCC#N)CCC#N)ccc1/C=N/NC(=O)c1cc(Cl)ccc1O |  |  | > 100 µM | > 100 µM | > 100 µM | > 100 µM | > 100 µM | > 100 µM | > 100 µM | > 100 µM | > 100 µM | > 100 µM | 
Cc1ccc([C@@H]2[C@@H](C(=O)c3ccccn3)[C@H](c3ccc(C)cc3)C[C@](O)(c3ccccn3)[C@H]2C(=O)c2ccccn2)cc1 | > 100 µM | > 64.3 µM | 6.92 µM | > 100 µM | > 41.6 µM |  | > 100 µM | 10.7 µM | > 100 µM | > 100 µM | > 100 µM | > 100 µM | > 100 µM
COc1cccc2c(N)c3cccc(C(=O)NCCN(C)C)c3nc12 | 0.472 µM | 1.44 µM |  | 0.501 µM | 1.15 µM | 1.09 µM | 21.2 µM | 1.72 µM | 0.149 µM | 1.57 µM | 5.38 µM | 0.656 µM | 3.17 µM
COc1ccc(C2CC(c3c(O)ccc4ccccc34)=NN2c2ccc([N+](=O)[O-])cc2[N+](=O)[O-])cc1OC (stereo not given) | > 100 µM | > 60.3 µM |  | 56.4 µM | 35.9 µM | > 67 µM | > 100 µM | > 100 µM | > 42.9 µM | > 91.7 µM | 79.7 µM | > 100 µM | > 100 µM
O=C(Nc1ccc(Br)cc1)c1c(-c2ccccc2)c2ccc(O)cc2oc1=O | > 10 µM |  | > 10 µM | > 10 µM | > 10 µM | > 10 µM | > 10 µM | > 10 µM | > 10 µM | > 10 µM | > 10 µM | > 10 µM | > 10 µM
COC(=O)CNC(=O)C(Cc1ccccc1)NC(=O)C(CCSC)NC(=O)C(Cc1ccc(O)cc1)NC(=O)OC(C)(C)C (stereo not given) (Boc-YMFG-OMe; configuration not given here) | 32.7 µM | > 100 µM | > 100 µM | > 100 µM | > 100 µM |  | > 100 µM | > 100 µM | 43 µM | > 100 µM | > 100 µM | > 100 µM | 34.8 µM
CSc1nc(Cl)c2c(n1)Sc1nc3cc4c(cc3n1C2O)OCCO4 (stereo not given) | 0.392 µM | 3.99 µM |  | 32.6 µM | 15.9 µM | 36.3 µM | 11.1 µM | 2.39 µM | 0.386 µM | 27.7 µM | 65.3 µM | 44.2 µM | 21.7 µM
CN1C(=O)C2C(=O)N(Cc3ccccc3)CC(=O)N2c2cccnc21 (stereo not given) | > 100 µM | > 100 µM | > 100 µM | > 100 µM | > 100 µM | > 100 µM | > 100 µM | > 100 µM | > 100 µM | > 100 µM | > 100 µM | > 100 µM | 
Cc1c(F)c(N)c2c(=O)cc(-c3ccc(NC(=O)CN(C)C)c(F)c3)oc2c1F | > 100 µM | > 100 µM | 46.4 µM | > 100 µM | 5.77 µM |  | > 100 µM | > 100 µM | > 100 µM | > 66.1 µM | > 100 µM | > 92.5 µM | > 100 µM
CN(C)CCCOc1nc2c(c(=O)n(C)c(=O)n2C)n1C (tested in a mixture with another compound) | 9.8 µM | > 100 µM |  | 27.4 µM | > 100 µM | > 100 µM | 42.9 µM | > 100 µM | > 100 µM | > 100 µM | > 100 µM | > 100 µM | > 100 µM
